Assay results from publication PMC6556873, “Rapid Covalent-Probe Discovery by Electrophile-Fragment Screening” (Journal of the American Chemical Society, 2019).
Read-outs that look alike come from different tables or passages of the source.

Experiments:
in vitro [1] = assay: in vitro; design: species or system HB2, HEK293; conditions: human, ccd841 cells
in vitro [2] = assay: in vitro; design: species or system CCD841, HEK293; conditions: human, hb2 cells, read-out: HB-2 Cells Viability (%)
BSA = biological target: T1, BSA (Bos taurus, UniProt P02769); design: Intact protein LC/MS covalent labelling, fragments in pools of five, 200 uM each, 4 °C; conditions: 24 h, 4 °C, pool of five; 200 µM; covalent
T1 construct: gene ALB

NUDT7 = biological target: T2, NUDT7 (Homo sapiens, UniProt P0C024); design: Intact protein LC/MS covalent labelling, fragments in pools of five, 200 uM each, 4 °C; conditions: 24 h, 4 °C, pool of five; 200 µM; covalent
T2 construct: residues 14-235, E. coli, pNIC28-Bsa4, N-terminal His6 tag removed by TEV, construct 26672 Da

OTUB2 (OTUB2A) = biological target: T3, OTUB2 (OTUB2A) (Homo sapiens, UniProt Q96DC9); design: Intact protein LC/MS covalent labelling, fragments in pools of five, 200 uM each, 4 °C; conditions: 24 h, 4 °C, pool of five; 200 µM; covalent
T3 construct: full length residues 1-234, E. coli BL21(DE3)-R3, His tag removed by TEV, construct 27312 Da
T3 sequence (Q96DC9 1-234): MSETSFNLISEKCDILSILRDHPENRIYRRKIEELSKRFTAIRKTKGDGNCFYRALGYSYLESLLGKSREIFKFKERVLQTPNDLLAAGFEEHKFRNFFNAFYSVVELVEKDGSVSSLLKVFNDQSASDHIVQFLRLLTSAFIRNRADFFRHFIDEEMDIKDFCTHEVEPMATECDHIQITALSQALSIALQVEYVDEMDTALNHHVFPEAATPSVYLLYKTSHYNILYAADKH

NNMT (hNNMT) = biological target: T4, NNMT (hNNMT) (Homo sapiens, UniProt P40261); design: Intact protein LC/MS covalent labelling, fragments in pools of five, 200 uM each, 4 °C; conditions: 24 h, 4 °C, pool of five; 200 µM; covalent
T4 construct: wild type, N-terminal His6 tag kept (no cleavage described), E. coli, construct 31248 Da
T4 sequence (P40261 1-264): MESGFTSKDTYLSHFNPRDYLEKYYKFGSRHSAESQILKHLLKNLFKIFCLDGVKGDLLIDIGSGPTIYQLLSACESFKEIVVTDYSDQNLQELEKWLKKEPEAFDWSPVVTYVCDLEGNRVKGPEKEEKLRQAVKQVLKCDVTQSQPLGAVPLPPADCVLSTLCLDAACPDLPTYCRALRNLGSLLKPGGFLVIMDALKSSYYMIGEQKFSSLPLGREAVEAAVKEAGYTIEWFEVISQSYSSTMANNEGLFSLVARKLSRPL

PCAF = biological target: T5, PCAF (Homo sapiens, UniProt Q92831); design: Intact protein LC/MS covalent labelling, fragments in pools of five, 200 uM each, 4 °C; conditions: 24 h, 4 °C, pool of five; 200 µM; covalent
T5 construct: gene KAT2B

in vitro [3] = assay: in vitro; design: species or system HB2, CCD841; conditions: human, hek293 cells

T5 sequence (Q92831 whole entry, the tested form may be a part): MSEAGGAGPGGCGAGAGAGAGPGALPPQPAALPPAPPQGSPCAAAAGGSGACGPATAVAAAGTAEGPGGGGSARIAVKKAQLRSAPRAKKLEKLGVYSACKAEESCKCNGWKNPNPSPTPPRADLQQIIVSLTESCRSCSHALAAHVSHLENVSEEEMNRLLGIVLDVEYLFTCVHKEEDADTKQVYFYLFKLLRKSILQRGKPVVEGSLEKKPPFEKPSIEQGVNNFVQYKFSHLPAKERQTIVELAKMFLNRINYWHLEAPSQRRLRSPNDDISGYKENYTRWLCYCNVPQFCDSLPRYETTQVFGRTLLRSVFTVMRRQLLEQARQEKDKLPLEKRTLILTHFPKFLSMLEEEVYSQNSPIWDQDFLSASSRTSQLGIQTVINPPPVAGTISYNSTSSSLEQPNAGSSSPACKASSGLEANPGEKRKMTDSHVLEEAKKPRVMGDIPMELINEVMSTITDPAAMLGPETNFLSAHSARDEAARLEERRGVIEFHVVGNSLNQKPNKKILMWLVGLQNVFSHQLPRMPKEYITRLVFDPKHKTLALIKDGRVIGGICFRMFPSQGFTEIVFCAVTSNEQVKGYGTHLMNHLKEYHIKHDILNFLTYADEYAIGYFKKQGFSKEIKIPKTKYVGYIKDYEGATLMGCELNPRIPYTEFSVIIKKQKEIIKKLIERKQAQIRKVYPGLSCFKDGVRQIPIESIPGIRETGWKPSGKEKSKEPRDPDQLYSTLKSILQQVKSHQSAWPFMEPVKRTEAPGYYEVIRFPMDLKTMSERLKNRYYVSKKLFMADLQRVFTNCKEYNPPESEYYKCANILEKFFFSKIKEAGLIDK
T2 sequence (P0C024 14-235): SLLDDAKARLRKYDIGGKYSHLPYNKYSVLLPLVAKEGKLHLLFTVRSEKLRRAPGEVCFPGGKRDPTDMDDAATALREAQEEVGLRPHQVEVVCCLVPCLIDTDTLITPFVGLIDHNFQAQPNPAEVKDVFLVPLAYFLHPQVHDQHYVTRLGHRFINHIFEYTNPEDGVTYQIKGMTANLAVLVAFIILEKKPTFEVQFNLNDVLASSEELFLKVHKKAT
T1 sequence (P02769 whole entry, the tested form may be a part): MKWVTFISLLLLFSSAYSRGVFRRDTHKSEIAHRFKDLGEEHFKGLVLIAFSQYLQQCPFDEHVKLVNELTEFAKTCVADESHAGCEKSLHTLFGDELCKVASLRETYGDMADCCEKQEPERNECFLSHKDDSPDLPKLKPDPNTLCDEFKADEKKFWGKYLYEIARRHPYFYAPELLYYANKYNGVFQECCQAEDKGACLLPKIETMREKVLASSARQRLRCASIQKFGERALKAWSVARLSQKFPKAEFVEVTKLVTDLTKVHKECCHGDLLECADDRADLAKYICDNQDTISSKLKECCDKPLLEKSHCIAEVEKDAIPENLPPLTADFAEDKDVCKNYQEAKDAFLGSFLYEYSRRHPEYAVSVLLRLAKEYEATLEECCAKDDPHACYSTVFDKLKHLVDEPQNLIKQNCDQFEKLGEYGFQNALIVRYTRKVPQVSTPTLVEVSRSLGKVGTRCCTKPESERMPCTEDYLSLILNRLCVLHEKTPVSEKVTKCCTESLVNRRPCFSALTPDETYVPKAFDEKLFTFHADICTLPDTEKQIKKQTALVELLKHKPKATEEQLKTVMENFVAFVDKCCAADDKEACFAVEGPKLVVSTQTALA

Structure (SMILES)	viability at 48 h, 10 µM (in vitro [1])	viability at 48 h, 10 µM (in vitro [2])	BSA (BSA)	NUDT7 (NUDT7)	OTUB2 (OTUB2 (OTUB2A))	NNMT (NNMT (hNNMT))	PCAF (PCAF)	viability at 48 h, 10 µM (in vitro [3])
Cc1ccccc1CN1CCN(C(=O)CCl)CC1.Cl [PCM-0102876]	69.2%	31.1%	0	0	0	0	0	38.1%
O=C(CCl)N1CCc2ccc([N+](=O)[O-])cc21 [PCM-0102777]	2.6%	1.7%	0	0	0	0.61	0	17.9%
Cl.O=C(CCl)Nc1ccc(Cl)cn1 [PCM-0103036]	96.4%	98.5%	0.19	0	0	0.19	0	113%
O=C(CCl)NC(=O)NCC1COc2ccccc2O1 (stereo not shown) [PCM-0102092]	33.4%	49%	0	0	0	0	0	7.6%
C=CC(=O)NCc1cc(F)c(C(F)(F)F)cc1F [PCM-0103078]	96.9%	101%	0	0	0	0.2	0	88.4%
N#Cc1cccc(CNC(=O)CCl)c1 [PCM-0102936]	94.9%	97.1%	0	0	0.32	0	0	83.1%
Cl.O=C(CCl)N1CCN(Cc2ccco2)CC1 [PCM-0103006]	85%	88.6%	0	0	0	0	0	65.7%
C=CC(=O)NC(=O)Nc1ccccc1 [PCM-0102883]	17.8%	5.4%	0	0	0	0	0	4%
C=CC(=O)N1CCC2(CC1)CCS(=O)(=O)CC2 [PCM-0102559]	113%	105%	0.12	0	0	0	0	113%
CC(NC(=O)NC(=O)CCl)C1CC2CCC1C2 (stereo not shown) [PCM-0102997]	116%	98.1%	0	0	0.05	0.23	0	91.4%
CC1CCCN(C(=O)CCl)C1 (stereo not shown) [PCM-0102867]	104%	102%	0	0	0	0	0	103%
C=CC(=O)N1CCCN(C(=O)c2cc(Cl)cn2C)CC1 [PCM-0103003]	101%	105%	0	0	0	0	0	96.7%
Cc1cc(Br)ccc1NC(=O)CCl [PCM-0102799]	63.3%	34.9%	0	0.24	0.61	0.39	0	4.7%
CN(Cc1ccc(Br)cc1)C(=O)CCl [PCM-0102401]	32.1%	6.8%	0	0.58	0	0.53	0	7.3%
Cl.O=C(CCl)N1CCN(c2ccccc2F)CC1 [PCM-0102373]	79.7%	55.8%	0	0	0	0	0	64.3%
C#CCN1CCN(C(=O)CCl)CC1.Cl [PCM-0102811]	84.9%	92.5%	0	0	0	0	0	72.2%
CC(NC(=O)CCl)c1ccc(Br)cc1 (stereo not shown) [PCM-0102374]	73.1%	63.8%	0	0.23	0.34	0.55	0	50%
COC(=O)NC(=O)CCl [PCM-0102791]	123%	106%	0	0	0.09	0	0	94.3%
C=CC(=O)N1CCC2(CCN(C)C2=O)CC1 [PCM-0102475]	100%	94.8%	0	0	0	0	0	85.3%
O=C(CCl)Nc1cc([N+](=O)[O-])ccc1Cl [PCM-0102366]	4.3%	1.3%	0	0.2	0.27	0.51	0	2.6%
